Key:
Akt1 = target: T1, Akt1 (Homo sapiens, UniProt P31749); test: Akt activation assay (PDK1-mediated activation, LANCE Ultra crosstide TR-FRET), Akt1; assay type: biochemical; settings: read-out: Biological Assay 1 IC50 (nM) Akt1
T1 construct: unspecified tag, removed (detagged) (cleaved yes); purchased SignalChem and Proteros (Akt1); Merck Millipore (PDK1) 14-452 (PDK1); none given for Akt1
How it was run: (§1)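 Compound + Akt preinc.; start w/ PDK1 5 nM, DOPS/DOPC 5.5 μM each, PIP3 0.55 μM, ATP 100 μM, Ulight-crosstide 100 nM; HEPES pH 7.5, 10 mM MgCl2, 2 mM DTT, 1% DMSO; 30 min; EDTA stop; Eu-Ab TR-FRET; 4-PL IC50.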

Akt2 = target: T2, Akt2 (Homo sapiens, UniProt P31751); test: Akt activation assay (PDK1-mediated activation, LANCE Ultra crosstide TR-FRET), Akt2; assay type: biochemical; settings: read-out: Biological Assay 1 IC50 (nM) Akt2
T2 construct: unspecified tag, removed (detagged) (cleaved yes); purchased SignalChem and Proteros (Akt2); Merck Millipore (PDK1) 14-452 (PDK1); none given for Akt2
How it was run: as §1

Akt3 = target: T3, Akt3 (Homo sapiens, UniProt Q9Y243); test: Akt activation assay (PDK1-mediated activation, LANCE Ultra crosstide TR-FRET), Akt3; assay type: biochemical; settings: read-out: Biological Assay 1 IC50 (nM) Akt3
T3 construct: unspecified tag, removed (detagged) (cleaved yes); purchased SignalChem and Proteros (Akt3); Merck Millipore (PDK1) 14-452 (PDK1); none given for Akt3
How it was run: as §1

p-Akt1 in LNCaP cells = target: T4, p-Akt1 in LNCaP cells (Homo sapiens, UniProt P31749); test: Phospho-Akt cellular SureFire assay, p-Akt1 in LNCaP cells; assay type: cell-based; settings: read-out: Biological Assay 2 IC50 (nM) Akt1 LNCaP
T4 construct: SureFire assays to detect cellular p-Akt1, p-Akt2 and p-Akt3 levels in WM115 cells (Akt2/3) and LNCaP cells (Akt1); endogenous in cells; host or cells: LNCaP (ECACC 89110211)
How it was run: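 LNCaP cells, 5×10^4/well, seeded overnight, switched to 0.1% FBS medium without insulin stimulation, then compound for 15 min at 37 °C (0.3% DMSO). Lysate p-Akt1 (pThr308) by AlphaScreen SureFire, two 2 h incubations at room temperature; IC50 by 4-parameter fit.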

p-Akt2 in WM115 cells = target: T5, p-Akt2 in WM115 cells (Homo sapiens, UniProt P31751); test: Phospho-Akt cellular SureFire assay, p-Akt2 in WM115 cells; assay type: cell-based; settings: insulin stimulated, read-out: Biological Assay 2 IC50 (nM) Akt2 WM115
T5 construct: SureFire assays to detect cellular p-Akt1, p-Akt2 and p-Akt3 levels in WM115 cells (Akt2/3) and LNCaP cells (Akt1); endogenous in cells; host or cells: WM115 (ECACC 91061232), insulin-stimulated
How it was run: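 WM115 cells in 0.1% FBS medium stimulated 10 min with 100 nM insulin, then exposed to compound for 15 min at 37° C (0.3% DMSO final). Lysates assayed by AlphaScreen with anti-(pThr308)Akt and isoform-specific total Akt2 antibodies; IC50 from 4-parameter fit.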

p-Akt3 in WM115 cells = target: T6, p-Akt3 in WM115 cells (Homo sapiens, UniProt Q9Y243); test: Phospho-Akt cellular SureFire assay, p-Akt3 in WM115 cells; assay type: cell-based; settings: insulin stimulated, read-out: Biological Assay 2 IC50 (nM) Akt3 WM115
T6 construct: SureFire assays to detect cellular p-Akt1, p-Akt2 and p-Akt3 levels in WM115 cells (Akt2/3) and LNCaP cells (Akt1); endogenous in cells; host or cells: WM115 (ECACC 91061232), insulin-stimulated
How it was run: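 WM115 cells were serum-reduced to 0.1% FBS, stimulated with 100 nM insulin for 10 min, then exposed to compound (0.3% DMSO) for 15 min at 37 °C. Lysates were assayed for Thr308-phosphorylated Akt3 by AlphaScreen SureFire using an isoform-specific total Akt3 capture antibody. IC50 was derived from a 4-parameter fit.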

T1 sequence (P31749 whole entry): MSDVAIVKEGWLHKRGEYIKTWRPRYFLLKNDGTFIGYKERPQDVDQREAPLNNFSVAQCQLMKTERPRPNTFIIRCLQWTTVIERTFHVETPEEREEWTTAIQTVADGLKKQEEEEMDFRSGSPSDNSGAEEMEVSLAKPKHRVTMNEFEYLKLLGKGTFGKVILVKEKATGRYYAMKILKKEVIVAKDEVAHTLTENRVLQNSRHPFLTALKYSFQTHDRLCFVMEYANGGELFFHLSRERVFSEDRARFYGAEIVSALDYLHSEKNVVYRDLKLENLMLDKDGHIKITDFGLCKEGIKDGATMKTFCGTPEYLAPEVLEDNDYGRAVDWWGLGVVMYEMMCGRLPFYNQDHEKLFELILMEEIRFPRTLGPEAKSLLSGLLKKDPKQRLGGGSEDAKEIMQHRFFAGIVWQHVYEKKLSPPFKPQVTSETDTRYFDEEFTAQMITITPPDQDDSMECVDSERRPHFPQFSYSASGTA
T4 sequence (P31749 whole entry): as above
T5 sequence (P31751 whole entry): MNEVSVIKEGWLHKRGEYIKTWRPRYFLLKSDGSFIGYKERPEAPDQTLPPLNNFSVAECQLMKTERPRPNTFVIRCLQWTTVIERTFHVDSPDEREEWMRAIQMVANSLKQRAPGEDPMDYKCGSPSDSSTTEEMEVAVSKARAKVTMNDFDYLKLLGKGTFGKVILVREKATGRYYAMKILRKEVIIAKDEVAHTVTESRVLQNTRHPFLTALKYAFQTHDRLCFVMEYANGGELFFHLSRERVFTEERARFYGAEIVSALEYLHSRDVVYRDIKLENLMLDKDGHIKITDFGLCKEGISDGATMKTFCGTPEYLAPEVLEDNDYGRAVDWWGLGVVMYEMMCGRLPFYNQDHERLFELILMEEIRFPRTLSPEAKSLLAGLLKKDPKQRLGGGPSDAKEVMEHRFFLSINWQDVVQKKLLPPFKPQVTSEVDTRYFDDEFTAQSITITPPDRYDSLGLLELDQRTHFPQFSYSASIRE
T2 sequence (P31751 whole entry): as above
T6 sequence (Q9Y243 whole entry): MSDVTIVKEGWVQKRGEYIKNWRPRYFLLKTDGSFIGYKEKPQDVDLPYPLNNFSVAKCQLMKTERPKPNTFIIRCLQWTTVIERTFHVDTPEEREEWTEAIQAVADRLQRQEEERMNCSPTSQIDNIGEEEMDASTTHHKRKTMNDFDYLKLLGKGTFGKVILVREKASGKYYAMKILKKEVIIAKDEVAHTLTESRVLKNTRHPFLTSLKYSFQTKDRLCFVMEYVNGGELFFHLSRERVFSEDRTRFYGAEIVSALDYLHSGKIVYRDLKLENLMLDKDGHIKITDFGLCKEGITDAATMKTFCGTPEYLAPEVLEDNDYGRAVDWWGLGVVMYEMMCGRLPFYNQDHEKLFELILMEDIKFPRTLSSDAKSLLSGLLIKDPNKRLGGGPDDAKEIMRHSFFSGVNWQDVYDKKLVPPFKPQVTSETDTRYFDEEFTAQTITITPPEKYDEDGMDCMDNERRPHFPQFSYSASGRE
T3 sequence (Q9Y243 whole entry): as above

IC50 (Akt1) [nM]	IC50 (Akt2) [nM]	IC50 (Akt3) [nM]	IC50 (p-Akt1 in LNCaP cells) [nM]	IC50 (p-Akt2 in WM115 cells) [nM]	IC50 (p-Akt3 in WM115 cells) [nM]	SMILES
> 30000	6900	1300	> 30000	14000	1100	CC(=O)N[C@H]1CC[C@H](CC(=O)Nc2cnc(-c3ccc(C4(N)CCC4)cc3)c(-c3ccsc3C)c2)CC1 [Example 18, 2-(trans-4-acetamidocyclohexyl)-N-(6-(4-(1-aminocyclobutyl)phenyl)-5-(2-methylthiophen-3-yl)pyridin-3-yl)acetamide]
3900	320	10	2200	520	9	CC(=O)N(C)[C@H]1CC[C@H](CC(=O)Nc2cc(-c3ccsc3)c(-c3ccc([C@]4(N)C[C@](C)(O)C4)cc3)cn2)CC1 [Example 93, N-(5-(4-(trans-1-amino-3-hydroxy-3-methylcyclobutyl)phenyl)-4-(thiophen-3-yl)pyridin-2-yl)-2-(trans-4-(N-methylacetamido)cyclohexyl)acetamide]
> 29000	6500	380	> 15000	5200	150	COC(=O)N(C)[C@H]1CC[C@H](CC(=O)Nc2cnc(-c3ccc(C(C)(C)N)cc3)c(-c3ccccc3)c2)CC1 [Example 34, methyl (trans-4-(2-((6-(4-(2-aminopropan-2-yl)phenyl)-5-phenylpyridin-3-yl)amino)-2-oxoethyl)cyclohexyl)(methyl)carbamate]
> 30000	4000	51	> 30000	7100	150	CCC(=O)N(C)[C@H]1CC[C@H](CC(=O)Nc2cc(-c3ccccc3)c(-c3ccc(C(C)(C)N)cc3)nn2)CC1 [Example A84, N-(trans-4-(2-((6-(4-(2-aminopropan-2-yl)phenyl)-5-phenylpyridazin-3-yl)amino)-2-oxoethyl)cyclohexyl)-N-methylpropionamide]
> 21000	880	36	10000	2400	27	CC(=O)N(C)[C@H]1CC[C@H](CC(=O)Nc2cnc(-c3ccc(C4(N)CC(C)(O)C4)c(F)c3)c(-c3ccccc3)c2)CC1 (stereo partly drawn) [Example 124, N-(6-(4-(trans-1-amino-3-hydroxy-3-methylcyclobutyl)-3-fluorophenyl)-5-phenylpyridin-3-yl)-2-(trans-4-(N-methylacetamido)cyclohexyl)acetamide]
6100	87	8	1400	390	13	CCC(=O)N(C(C)C)[C@H]1CC[C@H](CC(=O)Nc2cnc(-c3ccc([C@]4(N)C[C@](C)(O)C4)cc3)c(-c3ccccc3)c2)CC1 [Example 122, N-(trans-4-(2-((6-(4-(trans-1-amino-3-hydroxy-3-methylcyclobutyl)phenyl)-5-phenylpyridin-3-yl)amino)-2-oxoethyl)cyclohexyl)-N-isopropylpropionamide]
> 30000	1100	36	> 30000	> 28000	960	COC(=O)N(C)[C@H]1CC[C@H](CC(=O)Nc2cc(-c3ccsc3)c(-c3ccc([C@]4(N)C[C@H](F)C4)cc3)nn2)CC1 [Example A70, Methyl (trans-4-(2-((6-(4-(trans-1-amino-3-fluorocyclobutyl)phenyl)-5-(thiophen-3-yl)pyridazin-3-yl)amino)-2-oxoethyl)cyclohexyl)(methyl)carbamate]
7900	1100	62	> 30000	5100	100	COC(=O)N(C)[C@H]1CC[C@H](CC(=O)Nc2cnc(-c3ccc([C@]4(N)C[C@H](F)C4)cc3)c(-c3ccccc3)c2)CC1 [Example 77, Methyl (trans-4-(2-((6-(4-(trans-1-amino-3-fluorocyclobutyl)phenyl)-5-phenylpyridin-3-yl)amino)-2-oxoethyl)cyclohexyl)(methyl)carbamate]

Reference: US10336702B2, “Pharmaceutically active compounds” (BERGENBIO ASA, priority 2015, dated 2019)
